Test results published in article PMC4503439, “Dose-Independent ADME Properties and Tentative Identification of Metabolites of α-Mangostin from Garcinia mangostana in Mice by Automated Microsampling and UPLC-MS/MS Methods” (PLoS ONE, 2015).
Entries after “also recorded” stand apart in the source; their conditions may differ. Like-named read-outs stand apart in the source and are kept apart here.

Assays:
[1] = Tissue distribution of α-MG (tissue-to-plasma ratios) after intravenous and oral administration; type: in vivo, mice
Procedure: The surgical procedures and administration of α-MG were conducted according to a previously reported method, [12], [31]. At 30 and 180 min after intravenous and oral administration of α-MG at doses of 10 mg/kg, as much blood as possible was collected via the carotid artery and each mouse was then sacrificed by cervical dislocation. Each liver, spleen, stomach, small intestine, large intestine, mesentery, kidney, fat, muscle, heart, lung, and brain was excised, weighted and homogenized with a volume of distilled water at 4 times the each organ. After centrifugation for 10 min, the supernatant was collected and all samples stored at –80°C until required.

[2] = Metabolism of α-MG in in vitro S9 fraction of liver; type: in vitro ADME, mice; settings: 30 min incubation, NADPH and UDPGA
Excerpt: (§1) The procedures for using S9 fractions from various tissues were similar those already reported. Each liver, stomach, small intestine, large intestine, lung, heart, kidney, fat, mesentery, muscle, and brain was excised after cervical dislocation (n = 6). Each tissue sample was rinsed with cold 0.9% NaCl-injectable solution, blotted dry with tissue paper and weighed. Then each tissue was homogenized with a volume of 0.25 M sucrose at 4 times of each tissue. Metabolic activity was initiated by adding a 100 μL aliquot of the 9000 × g supernatant fraction (S9) of each tissue to a 135 μL of Tris-buffer (pH 7.4), 5 μL of 0.9% NaCl-injectable solution with 1 or 20 μg/mL α-MG as a final concentration, 5 μL (1 mM) of NADPH and 5 μL (3.3 mM) of UDPGA. A 250 μL aliquot of acetonitrile (containing 1 μg/mL of the IS) was added after a 30 min incubation in a thermomixer (37°C and 500 opm) to terminate the enzyme activity. The amount of remaining α-MG in the S9 fraction of each tissue was determined using the HPLC-MS/MS analytical method.

[3] = Pharmacokinetics of α-MG after intravenous administration to mice (automated microsampling); type: in vivo; settings: for CL renal / MRT / clearance / AUC / half-life / Vd: mouse, plasma; for half-life: read-out: Terminal half-life; for Vd: read-out: V ss
Procedure: The surgical procedures were conducted under intramuscular injection anesthesia with 125 mg (1.5 mL)/kg of tiletamine HCl and zolazepam HCl mixture. The carotid artery (for intravenous and oral studies) and the jugular vein (for intravenous study) were cannulated using CX-2052S and CX-2022S catheters (BASi, West Lafayette, IN), respectively. After the mice awoke from anesthesia, the administration of α-MG and blood sampling were performed, [12], [31].
In intravenous study, α-MG (dissolved in PEG 400: distilled water = 6:4, v/v) at doses of 5, 10 and 20 mg (5 mL)/kg was administered through the jugular vein. The micro-sampling system (Culex BASi, West Lafayette, IN) was programmed to collect a 10 μL sample of blood into a micro-vial containing 50 μL of 12.5 units/mL heparinized saline. Blood loss due to blood sampling was replaced with equal volumes of heparinized saline. Blood samples were collected at 0, 1, 5, 15, 30, 60, 90, 120, 180, 240, 300 and 360 min after intravenous administration of the α-MG with virtually no blood loss. After centrifugation of each micro-vial, 50 μL of supernatant was collected. At the end of 24 h, each metabolic cage was rinsed with 5 mL of distilled water and the resulting fluid combined with the urine collected over the previous 24 h. At this time, each mouse was sacrificed by cervical dislocation, and then the entire gastrointestinal tract (including its contents and feces) was removed, transferred into a beaker that contained 10 mL of methanol (to facilitate the extraction of α-MG) and the gastrointestinal tract was cut into small pieces. After manual shaking and stirring, a 50 μL aliquot of the supernatant was collected from each beaker and stored.
The analytical method for measuring α-MG was modified from a previous report. In sample preparation, 100 μL of acetonitrile containing 1 μg/mL IS was added to 50 μL of aliquot of the sample. After vortex-mixing and centrifugation (15000 × g for 10 min), 10 μL of the supernatant was directly injected into a reversed-phase C18 column (Cadenza CD-C18, 2 mm × 75 mm i.d., 3-μm particle size; Imtakt, USA) kept at 4°C until injection. The analytes were monitored using a API4000 triple quadrupole mass spectrometer (AB Sciex, Foster City, CA) equipped with a turbo ion-spray interface for electrospray ionization and operated in positive ion mode at 5500 V and 500°C at 50 L/min of nebulizing gas flow, 50 L/min of turbo ion-spray gas flow, 20 L/min of curtain gas flow, 5500 V of ring voltage and 5 Torr of collision gas (nitrogen) pressure.
Standard methods were used to calculate the following pharmacokinetic parameters using a non-compartmental analysis (WinNonlin 2.1; Pharmasight Corp., Mountain View, CA). The extent of absolute oral bioavailability (F) was calculated by dividing the AUCoral/AUCiv at the same dose. The peak plasma concentration (C max) and time to reach C max (T max) were read directly from the […] data.

[4] = Mouse plasma protein binding using an equilibrium dialysis technique; type: in vitro ADME; settings: pH 7.4, fresh mouse plasma
Procedure: A 250 μL of mouse plasma was dialyzed against 250 μL of isotonic Sørensen phosphate buffer with pH 7.4 containing 3% (w/v) dextran (‘the buffer’) in a dialysis cell using a Spectra/Por 4 membrane (molecular weight cutoff of 12000–14000; Spectrum Medical Industries). α-MG was spiked into the plasma compartment to produce an initial concentration of 1 or 20 μg/mL and all other procedures followed the reported method.

[5] = Metabolism of α-MG in in vitro S9 fractions of other tissues; type: in vitro ADME, mice; settings: other tissues studied, spiked 1 and 20 μg/mL
Excerpt: as §1

[6] = tested on: Caco2 cell line; set-up: method as in PMID 19415666; settings: cited from earlier work
[7] = intravenous, doses of 5, 10 and 20 mg/kg

Question: Which “tissue-to-plasma (T/P) ratio” value ([1]; intravenous 10 mg/kg, kidney, at 30 min) does the source give for `COc1c(O)cc2oc3cc(O)c(CC=C(C)C)c(O)c3c(=O)c2c1CC=C(C)C` [α-MG, α-Mangostin] here?
Answer: greater than unity

Question: What about the “tissue-to-plasma (T/P) ratio” value ([1]; intravenous 10 mg/kg, large intestine and fat, at 180 min) of the same compound?
Answer: greater than unity

Question: What about the “tissue-to-plasma (T/P) ratio” value ([1]; intravenous 10 mg/kg, liver, small intestine and lung, at 30 and 180 min) of the same compound?
Answer: greater than unity

Question: What about the “tissue-to-plasma (T/P) ratio” value ([1]; oral 10 mg/kg, all tissues studied except the brain, at 30 and 180 min, 10 mg/kg) of the same compound?
Answer: greater than unity; also recorded: above unity

Question: And the “disappearance of spiked α-MG” value ([2]; liver S9, 1 μg/mL)?
Answer: 57.3%

Question: And the “disappearance of spiked α-MG” value ([2]; liver S9, 20 μg/mL)?
Answer: 51.4%

Question: What about the “CLR, fu (CLR based on free fraction in plasma)” value ([3]; estimated from CLR and unbound fraction) of the same compound?
Answer: 1.72 to 3.44 mL/min/kg

Question: What about the “Ae 0–24 h (excreted in the urine as unchanged α-MG)” value ([3]; intravenous, 5 mg/kg) of the same compound?
Answer: 0.839 ± 0.525 % of dose

Question: What about the CLNR ([3]; intravenous, 5 mg/kg) of the same compound?
Answer: 31.1 ± 7.14 mL/min/kg

Question: And the “GI 24 h (remaining in the gastrointestinal tract at 24 h as unchanged α-MG)” value ([3]; intravenous, 5 mg/kg)?
Answer: 3.44 ± 1.16 % of dose

Question: What about the “Ae 0–24 h (excreted in the urine as unchanged α-MG)” value ([3]; intravenous, 10 mg/kg) of the same compound?
Answer: 0.592 ± 0.394 % of dose

Question: And the CLNR ([3]; intravenous, 10 mg/kg)?
Answer: 31.1 ± 7.83 mL/min/kg

Question: What about the “GI 24 h (remaining in the gastrointestinal tract at 24 h as unchanged α-MG)” value ([3]; intravenous, 10 mg/kg) of the same compound?
Answer: 2.28 ± 1.96 % of dose

Question: And the “Ae 0–24 h (excreted in the urine as unchanged α-MG)” value ([3]; intravenous, 20 mg/kg)?
Answer: 0.403 ± 0.163 % of dose

Question: What about the CLNR ([3]; intravenous, 20 mg/kg) of the same compound?
Answer: 34.6 ± 12.3 mL/min/kg

Question: What about the “GI 24 h (remaining in the gastrointestinal tract at 24 h as unchanged α-MG)” value ([3]; intravenous, 20 mg/kg) of the same compound?
Answer: 3.42 ± 1.73 % of dose

Question: And the “Ae 0–24 h” value [3, 7]?
Answer: less than 0.839 % of the intravenous dose

Question: What about the “GI 24 h” value [3, 7] of the same compound?
Answer: less than 3.44 % of the doses

Question: And the CL renal ([3]; intravenous, 5 mg/kg)?
Answer: 0.283 ± 0.194 mL/min/kg

Question: What about the MRT ([3]; intravenous, 5 mg/kg) of the same compound?
Answer: 2.42 h

Question: And the clearance ([3]; intravenous, 5 mg/kg)?
Answer: 31.4 ± 7.28 mL/min/kg

Question: What about the AUC ([3]; intravenous, 5 mg/kg (n = 9)) of the same compound?
Answer: 2820 ng·h/mL

Question: And the half-life ([3]; intravenous, 5 mg/kg)?
Answer: 3.77 ± 0.572 h

Question: And the Vd ([3]; intravenous, 5 mg/kg)?
Answer: 4.3 ± 1.01 L/kg

Question: And the CL renal ([3]; intravenous, 10 mg/kg)?
Answer: 0.205 ± 0.15 mL/min/kg

Question: What about the MRT ([3]; intravenous, 10 mg/kg) of the same compound?
Answer: 2.67 h

Question: And the clearance ([3]; intravenous, 10 mg/kg)?
Answer: 31.3 ± 7.95 mL/min/kg

Question: What about the AUC ([3]; intravenous, 10 mg/kg (n = 8)) of the same compound?
Answer: 5670 ng·h/mL

Question: And the half-life ([3]; intravenous, 10 mg/kg)?
Answer: 3.65 ± 1.23 h

Question: And the Vd ([3]; intravenous, 10 mg/kg)?
Answer: 4.27 ± 1.97 L/kg

Question: And the CL renal ([3]; intravenous, 20 mg/kg)?
Answer: 0.141 ± 0.0801 mL/min/kg

Question: What about the MRT ([3]; intravenous, 20 mg/kg) of the same compound?
Answer: 2.4 h

Question: What about the clearance ([3]; intravenous, 20 mg/kg) of the same compound?
Answer: 34.7 ± 12.4 mL/min/kg

Question: And the AUC ([3]; intravenous, 20 mg/kg (n = 8))?
Answer: 10600 ng·h/mL

Question: And the half-life ([3]; intravenous, 20 mg/kg)?
Answer: 2.88 ± 1.2 h

Question: What about the Vd ([3]; intravenous, 20 mg/kg) of the same compound?
Answer: 4.5 ± 1.38 L/kg

Question: And the clearance ([3]; intravenous, range over doses (Table 1))?
Answer: 31.3 to 34.7 mL/min/kg

Question: And the fraction unbound at 1 μg/mL ([4]; 1 μg/mL)?
Answer: 0.082

Question: And the fraction unbound at 20 μg/mL ([4]; 20 μg/mL)?
Answer: 0.107

Question: And the “metabolic activity in S9 fractions” value [5]?
Answer: almost negligible metabolic activities

Question: What about the “absorption in the Caco2 cell line” value [6] of the same compound?
Answer: low absorption
